For orientation: IC50 means the concentration needed to halve the response being measured.

The subject of test [1] is K562. In words: Cytotoxicity against human K562 cells. It is filed as functional, cell-based.
Test [2] relates to HL-60. Description: Cytotoxicity against human HL60 cells. In kind it is functional, cell-based.
The nature of test [3]: Cytotoxicity against human 95-D cells by SRB assay. It is filed as functional, cell-based. A general note: The SRB assay estimates cell density from bound dye.
The subject of test [4] is K562. Description: Cytotoxicity against human K562 cells assessed as cell viability at 75 uM after by MTT assay relative to control. In kind it is functional. As to conditions: read-out: Activity. For orientation: Tetrazolium assays rely on reduction of a dye to a coloured formazan, in cell work by metabolically active cells.
In test [5] the test system is K562. Description: Antiproliferative activity against human K562 cells assessed as cell viability at 75 uM after 48 hrs relative to control. It is filed as functional. The settings on record: K562, 48 h, read-out: Activity.
Test [6] can be described thus: Cytotoxicity against mouse Meth-A cells by MTT assay. It is filed as functional. The settings on record: read-out: ED50 (the source's name).
Test [7] concerns A549. In words: Cytotoxicity against human A549 cells after 72 hrs by MTT assay. In kind it is functional, cell-based. The settings on record: A549, 72 h.
For test [8], the system named is HCT-8. Description: Cytotoxicity against human HCT8 cells after 72 hrs by MTT assay. The settings on record: HCT-8, 72 h. It is filed as functional, cell-based.
The test system of test [9] is BGC-823. Description: Cytotoxicity against human BGC823 cells after 72 hrs by MTT assay. It is filed as functional, cell-based. The settings on record: BGC-823, 72 h.
The subject of test [10] is NCI-H23. In words: Antitumour activity against human NCI-H23 cells xenografted in nude mouse assessed as inhibition of tumour growth at 50 mg/kg, ip for 17 days relative to control. In kind it is functional. As to conditions: 408 h, read-out: TGI. Background: Xenograft models place foreign cells or tissue in a host animal.
The subject of test [11] is SW-620. In words: Antitumour activity against human SW620 cells xenografted in nude mouse assessed as inhibition of tumour growth at 50 mg/kg, ip for 17 days relative to control. In kind it is functional. The settings on record: SW-620, ip, 408 h, read-out: TGI.
Test [12] has as its system SGC-7901. In words: Cytotoxicity against human SGC7901 cells by MTT assay. It is filed as functional, cell-based.
Test [13] concerns SMMC-7721. Description: Cytotoxicity against human SMMC7721 cells by MTT assay. In kind it is functional, cell-based.
Test [14] deals with BGC-823. Description: Cytotoxicity against human BGC823 cells. It is filed as functional, cell-based.
Test [15] deals with HCT-8. Description: Cytotoxicity against human HCT8 cells. It is filed as functional, cell-based.
The subject of test [16] is A549. Description: Cytotoxicity against human A549 cells. In kind it is functional, cell-based.
In test [17] the test system is A549. Description: Cytotoxicity against human A549 cells assessed as reduction in cell viability by CCK8 assay. In kind it is functional, cell-based.
The subject of test [18] is HepG2. Description: Cytotoxicity against human HepG2 cells assessed as reduction in cell viability by CCK8 assay. In kind it is functional, cell-based.
For test [19], the system named is MG-63. In words: Cytotoxicity against human MG63 cells assessed as cell viability after 48 hrs in presence of allicin by MTT assay relative to control. It is filed as functional.
Test [20] concerns PANC-1. In words: Cytotoxicity against human PANC1 cells assessed as cell viability after 24 hrs by MTT assay relative to control. In kind it is functional.
In test [21] the test system is CFPAC-1. Description: Cytotoxicity against human CFPAC-1 cells assessed as cell viability after 24 hrs by MTT assay relative to control. In kind it is functional.
Test [22] concerns H22. In words: Antitumour activity against mouse H22 cells transplanted in mouse assessed as tumour growth inhibition at 300 mg/kg after 7 days relative to control. It is filed as functional. The settings on record: H22, 168 h, read-out: TGI.
For test [23], the system named is Lymphocyte. In words: Cytotoxicity against human lymphocytes. It is filed as cell-based.
Test [24] relates to HGC-27. In words: Cytotoxicity against human HGC27 assessed as cell viability at 160 mg/l after 48 hrs by MTT assay relative to control. As to conditions: HGC-27, 48 h, read-out: Activity. In kind it is functional.
Test [25] deals with MGC-803. Description: Cytotoxicity against human MGC803 assessed as cell viability at 160 mg/l after 48 hrs by MTT assay relative to control. The settings on record: MGC-803, 48 h, read-out: Activity. It is filed as functional.
Test [26] relates to CFPAC-1. In words: Antitumour activity against human CFPAC-1 cells xenografted in ip dosed nude BALB/c mouse assessed as tumor weight for 18 days. It is filed as functional.
For test [27], the system named is PANC-1. In words: Antitumour activity against human PANC1 cells xenografted in ip dosed nude BALB/c mouse assessed as tumor weight for 18 days. It is filed as functional.
Test [28] deals with U2OS. Description: Cytotoxicity against human U2OS cells assessed as cell viability after 48 hrs in presence of allicin by MTT assay relative to control. It is filed as functional.
The test system of test [29] is BGC-823. Description: Cytotoxicity against human BGC823 assessed as cell viability at 160 mg/l after 48 hrs by MTT assay relative to control. It is filed as functional. The settings on record: BGC-823, 48 h, read-out: Activity.
Test [30] has as its system MG-63. Description: Antitumour activity against human MG63 cells xenografted in nude BALB/c mouse assessed as tumour weight at […], ip for 5 days co-treated with allicin. It is filed as functional.
For test [31], the system named is Y79. In words: Induction of cell death in human Y79 cells by propidium iodide staining based flow cytometric analysis relative to control. In kind it is functional.
Test [32] has as its system OVCAR-3. Description: Growth inhibition of human OVCAR3 cells assessed as reduction in cell viability at 15 uM by MTT assay relative to control. It is filed as functional. As to conditions: read-out: GI.
Test [33] deals with IGROV-1. In words: Growth inhibition of human IGROV1 cells assessed as reduction in cell viability at 15 uM by MTT assay relative to control. It is filed as functional. As to conditions: read-out: GI.
Test [34] concerns HCT-116. In words: Growth inhibition of human HCT116 cells assessed as reduction in cell viability at 15 uM by MTT assay relative to control. It is filed as functional. The settings on record: read-out: GI.
The subject of test [35] is B16-F10. In words: Cytotoxicity against mouse B16F10 cells assessed as reduction in cell viability incubated for 24 hrs by MTT assay. In kind it is functional, cell-based. The settings on record: B16-F10, 24 h.
In test [36] the test system is A549. Description: Antiproliferative activity against human A549 cells assessed as reduction in cell viability after 48 hrs by MTT assay. In kind it is functional, cell-based. As to conditions: A549, 48 h.
Test [37] deals with MCF7. In words: Antiproliferative activity against human MCF7 cells assessed as reduction in cell viability after 48 hrs by MTT assay. In kind it is functional, cell-based. As to conditions: MCF7, 48 h.
For test [38], the system named is COLO 205. Description: Antiproliferative activity against human COLO205 cells assessed as reduction in cell viability after 48 hrs by MTT assay. As to conditions: COLO 205, 48 h. In kind it is functional, cell-based.
Test [39] relates to A-431. In words: Cytotoxicity against human A431 cells assessed as reduction in cell viability incubated for 24 hrs by MTT assay. In kind it is functional, cell-based. As to conditions: A-431, 24 h.
Test [40] relates to MIA PaCa-2. Description: Antiproliferative activity against human MIAPaCa2 cells assessed as reduction in cell viability after 48 hrs by MTT assay. In kind it is functional, cell-based. As to conditions: MIA PaCa-2, 48 h.
The subject of test [41] is BHY. Description: Antiproliferative activity against human BHY cells assessed as reduction in cell viability after 48 hrs by MTT assay. In kind it is functional, cell-based.

Converted amounts (≈) assume the structure as drawn. Where only a bound is given, the exact number is not on record here.

As for `C=C1CCC(O)C2(C)CCC3C(C)C(=O)OC3C12O` (stereo unspecified), the 50% inhibitory concentration (IC50) in test [1] stood at 22.5 µM; in test [2], 71.1 µM; in test [3] it was 11.3 µM.
As for `C[C@@H]1C(=O)O[C@H]2C1CC[C@@]1(C)[C@H](O)CC[C@@]13C[C@]2(O)OO3` (stereo partly specified), the viability at 75 µM in test [4] and in [5] was 40% in each case.
Regarding `CC(C)C(=O)CC[C@@H](C)[C@H]1CC[C@@]2(C)[C@@H]3CC[C@H]4C(C)(C)[C@@H](O)CC[C@@]45C[C@@]35CC[C@]12C`, the EC50 in test [6] was in the range of 4 to 10 µg/mL (≈ 9.03 to 22.6 µM).
On to `CC#CC#CC1=C(CCCCO)C(O)C(O)C1=O` (stereo unspecified), for which the concentration for half-maximal inhibition (IC50) in test [7] was 7.5 µM; in [8], 4.6 µM; in test [9], 1.1 µM.
On to `C=C1C(=O)O[C@@H]2[C@@H]3[C@@]4(C=C[C@@]3(C)[C@@]3(C4)C(=O)O[C@@H]4[C@H]5C(C)=CC(=O)C5=C(C)C[C@H](OC(=O)/C(C)=C\C)[C@H]43)[C@](C)(O)CC[C@@H]12`, for which the inhibition in vivo at 50 mg/kg in test [10] was 30.3%; in [11], 39.5%.
For the compound `CC1=CC2O[C@@H]3C[C@H]4OC(=O)/C=C\CC[C@]56OCCC7(OC7C(=O)OC[C@@]2(CC1)[C@]4(C)[C@]31CO1)[C@H]5OC(=O)[C@H]6O` (stereo partly specified), the half-inhibitory concentration (IC50) in test [12] worked out at 0.26 µg/mL (≈ 0.465 µM); in [13] it was 10.54 µg/mL (≈ 18.9 µM).
On to `CC(=O)OCC1=C2CC[C@@]3(C)[C@H](O)CC(OC(C)=O)=C(C)[C@@H]3[C@H]2OC1=O`, for which the figures for the half-inhibitory concentration (IC50) in [14], in test [15] and in test [16] were 2.71 µM, 3.76 µM and 5.49 µM, respectively.
Turning to `C=C1C(=O)O[C@@H]2[C@@H]3C4(C=C[C@@]3(C)[C@]3(C4)C(=O)O[C@@H]4[C@H]5C(C)=CC(=O)C5=C(C)C[C@H](OC(C)=O)[C@H]43)[C@@](C)(OC(C)=O)CC[C@@H]12`, the concentration for half-maximal inhibition (IC50) in test [17] and in test [18] was 0.6 to 5.4 µM in each case.
For `C[C@H]1[C@H](OC(=O)CCC(=O)O)O[C@@H]2O[C@@]3(C)CC[C@H]4[C@H](C)CC[C@@H]1[C@@]24OO3` [ARTESUNATE], the Activity in [19] is given as under 25%; in test [20], under 10%; in [21], under 10%; in test [26], under 0.4 g; in test [27], under 0.4 g; in test [28], under 25%. For the same compound, the values for the Activity in [30] and in test [31] were under 0.5 g and 80%, respectively. Further, the inhibition in vivo at 300 mg/kg in test [22] was found to be 49.1%. Further, it took 80 µM to reach half-maximal inhibition in test [23] (IC50). Further, the viability at 160 µg/mL in test [24], in test [25] and in [29] was under 20% each time.
For `COc1cc2oc(-c3ccc(O)c(O)c3)cc(=O)c2c(O)c1OC` [CIRSILIOL], the inhibition of growth at 15 µM was 53.7% in test [32], 48.8% in test [33] and 40.9% in [34].
On to `C=C1C(=O)O[C@H]2[C@H]1CCC(C)=C1C[C@H]3O[C@@]3(C)[C@@H]12` [LUDARTIN], for which the half-inhibitory concentration (IC50) was 6.6 µM in test [35]; 25.2 to 88.1 µM in test [36]; 25.2 to 88.1 µM in [37]; 25.2 to 88.1 µM in [38]; 19 µM in [39]; 25.2 to 88.1 µM in [40]. Also, in [41], the half-inhibitory concentration (IC50) is 25.2 to 88.1 µM.

The record behind these values is ChEMBL document CHEMBL4342436, “Artemisia: a promising plant for the treatment of cancer” (Bioorg Med Chem, 2020).
